Assay results: patent US7629310B2, “RhoB as a suppressor of cancer cell growth, cell transformation, and metastasis” (University of South Florida, priority 2000, dated 2009)
Values joined by “and” are separate entries in the source; they are usually repeats but may differ in a detail not shown here. Identical values can stand only once.

Experiments:
NIH3T3 cells [1] = assay: 5-FU-induced apoptosis (Annexin V, flow cytometry) in NIH3T3 cells; assay type: cell-based; conditions: for 5-FU apoptotic rate after transfection: NIH3T3, transfected 24 hours then 5-FU 48 hours (FIG. 10A), control 28-30%; for percent of apoptosis induced by 5-FU after transfection: parental NIH3T3, transfected 24 hrs then 5-FU 48 hrs, control 28%
Description: Apoptosis Assay. Cells were collected by trypsinization, washed in wash buffer and stained with Annexin V and 7-AAD according to manufacturer's recommendation (PharMingen, San Diego, Calif.). Data acquisition and analysis was performed by the Flow Cytometry Core Facility at the H. Lee Moffitt Cancer Center (Tampa, Fla.). All the samples were performed in duplicate and a representative of 3 independent experiments were reported here.

H-Ras/3T3 cells = assay: Migration through collagen type I coated transfilters, H-Ras/3T3 cells; assay type: cell-based; conditions: H-Ras/3T3 cells (FIG. 8B)
Description: (§1) Parental NIH3T3 (FIG. 8A) were transiently transfected with pcDNA3 vector control, H-Ras61L, CA-PI3K, or CA-Akt in the presence or absence of RhoA or RhoB or pcDNA3 for 36 hours. The cells were then split and cultured for another 4 weeks. The plates were examined for focus formation by staining. H-Ras/3T3 cells (FIG. 8B) and PANC-1 cells (FIG. 8C) were transiently transfected with pcDNA3 vector control, CA-Akt, or WT-Akt in the presence or absence of RhoA, RhoB, or pcDNA3 for 36 hours. The cells were then split and analyzed for their migration capabilities through collagen type I coated transfilters as described in the Materials and Methods section. NIH3T3 cells (FIGS. 8D and 8E) were transiently transfected with pcDNA3 vector control, H-Ras61L, CA-Akt, or WT-Akt in the presence or absence of RhoA, RhoB, or pcDNA3 for 36 hours. The monolayers were then scratched with a 20 μl pipette tip and micro-photographed at the time points indicated for analyzing their capability to migrate into and fill the wounded area.

A-549 cells [2] = assay: Cell proliferation, A-549; assay type: cell-based, human; conditions: A-549, 0-96 hours
Description: (§2) Cell Proliferation. Cells were collected and examined for cell number by trypan blue exclusion and hemocytometer counting under microscope at 0 h, 24 h, 48 h, 72 h and 96 h. All the samples were performed in triplicate and the averages of 3 independent experiments were reported.

A-549 cells [3] = assay: Focus/colony formation of A-549 cells in G418 medium; assay type: cell-based, human; conditions: transfected A-549 cells, 3 weeks
Description: Focus Formation Assay. NIH3T3 cells were seeded into 60-mm plates (1×10^6 cell/per plate) one day prior to gene transfection. […] Two days after transfection, the cells were seeded into 60-mm plates at a density of 2.5×10^3/per plate, and maintained in DMEM medium containing 1.5% CBS. The medium was changed every 3 days. 3-4 weeks later the cells were washed once with PBS and once with PBS/methanol (1:1), then washed with fresh anhydrous methanol and covered with crystal violet stain for 1 min at room temperature. Finally, the stain was displaced with water. The focus formation assay for A-549 cells was similarly performed as above except that following the transfection the cells were cultured in DMEM complete medium containing 400 μg/ml of geneticin (G418, […], Inc.). 3 weeks later, the cells were fixed with anhydrous methanol and stained with crystal violet; the plates were photographed. All the samples were performed in triplicate and a representative of 3 independent experiments was reported in the figure(s) and averages±standard deviation reported in the table.

PANC-1 cells = assay: Migration through collagen type I coated transfilters, PANC-1 cells; assay type: cell-based, human; conditions: PANC-1 cells (FIG. 8C)
Description: as §1

A-549 cells [4] = assay: Anoikis assay in A-549 cells; assay type: cell-based, human; conditions: A-549, poly-HEMA plates, 24 hr; control 40%
Description: Anoikis Assay. Cells were collected by trypsinization, washed twice with PBS, and re-suspended in serum-free medium containing 0.5% BSA; 5.0×10^5 cells were then seeded in triplicates into 60-mm plates pre-coated with poly(2-hydroxyethylmethacrylate) (poly-HEMA, SIGMA) according to the data sheet of the agents. 24 hrs later the cellular viability was determined by trypan blue exclusion.

NIH3T3 cells [5] = assay: Wound healing migration assay in NIH3T3 cells; assay type: cell-based; conditions: NIH3T3, 24 hours after wounding (FIG. 8D)
Description: as §1
The ability of RhoB to inhibit cancer cell migration was further confirmed in a different assay where cells are induced to migrate by physical wounding of cells plated on fibronectin pre-coated plates.

NIH3T3 cells [6] = assay: Anchorage-independent growth (soft agar) assay in NIH3T3 cells; assay type: cell-based; conditions: 5 weeks
Description: Anchorage-independent Growth Assay. NIH3T3 cells were similarly transfected as above. The cells were trypsinized, and 2.5×10^3 cells were suspended in triplicate in top soft agar layer (DMEM complete medium containing 0.35% agar) and seeded into 60-mm plates pre-coated by a 3-mm layer of lower agar (DMEM complete medium containing 0.7% agar). The cells were fed every 5 days for 5-6 weeks and finally stained with MTT (SIGMA). All the experiments were performed in triplicate and a representative of 3 independent experiments was reported in the figure(s) and averages±standard deviation in the table.

MMP-2 = MMP-2 expression in conditioned medium of PANC-1 and PC3 cells (Western blotting); assay type: cell-based, human; conditions: conditioned medium (FIG. 9C)
Description: HRas/3T3 cells (FIG. 9A) and PANC-1 cells (FIG. 9B) were transiently transfected with pcDNA3 vector control, H-Ras61L, CA-Akt, or WT-Akt in the presence or absence of RhoA, RhoB, or pcDNA3 for 36 hours. The cells were then split and analyzed for their invading capabilities through […]-coated transfilters as described in the Materials and Methods section. PANC-1 and PC3 cells (FIG. 9C) were transiently transfected with pcDNA3, with H-Ras61L in the presence or absence of RhoA, or RhoB for 36 hours. The cells were then serum-starved for another 36 hours; the conditioned medium was collected and 20 μg protein were analyzed for MMP-2 expression by Western Blotting.
One pivotal step in these processes is the ability of cancer cells to cut through the extracellular matrix. This is accomplished by a cascade of proteinases, among which matrix metalloproteinases (MMPs) play a pivotal role (Yoon, S. O. et al., J Biochem Mol Biol, 2003, 36:128-37; Stamenkovic, I. Semin Cancer Biol, 2000, 10:415-33). […] To this end, PANC-1 and PC3 cells were treated with LY294002, or transfected with pcDNA3-RhoA or RhoB, and the conditioned culture medium was collected and analyzed for MMP-2 expression by anti-MMP-2 Western blotting as described in the Materials and Methods section.

H-Ras/NIH3T3 cells = assay: Cell proliferation, H-Ras-transformed NIH3T3; assay type: cell-based; conditions: H-Ras-transformed NIH3T3, 0-96 hours
Description: as §2

Compound	apoptosis (NIH3T3 cells [1]; NIH3T3, 5-FU 48 hours (FIG. 10A))	apoptosis (NIH3T3 cells [1]; parental NIH3T3, 5-FU 2.0 μM 48 hrs (FIG. 4B))	ability to migrate through collagen type I (H-Ras/3T3 cells)	growth rate (A-549 cells [2])	5-FU apoptotic rate after transfection (NIH3T3 cells [1])	percent of apoptosis induced by 5-FU after transfection (NIH3T3 cells [1])	number of colonies (A-549 cells [3])	ability to migrate through collagen type I (PANC-1 cells)	cell death on deprivation of substratum attachment (anoikis) (A-549 cells [4])	wound healing (NIH3T3 cells [5])	# of soft agar colonies (NIH3T3 cells [6]; oncogene: H-Ras)	# of soft agar colonies (NIH3T3 cells [6]; oncogene: K-Ras)	# of soft agar colonies (NIH3T3 cells [6]; oncogene: N-Ras)	MMP-2 protein secreted (MMP-2)	growth rate (H-Ras/NIH3T3 cells)
O=c1[nH]cc(F)c(=O)[nH]1 [5-FU, 5-fluorouracil]	28-30%	27-32%	–	–	–	–	–	–	–	–	–	–	–	–	–
RhoA: closely related family member sharing 86% sequence identity with RhoB; wild-type, in HA-tagged pcDNA3, transfected as control	–	–	migrated	enhanced the rate of growth	slightly protected	no significant effect	593+/−43	migrated	protected these cells from anoikis	accelerated	77 and 77 ± 12	65 and 65 ± 7	89 and 89 ± 14	increased MMP-2 levels, but to a lesser extent	enhanced the rate of growth
RhoB: low molecular weight GTPase; wild-type RhoB subcloned into HA-tagged pcDNA3 and ectopically expressed by transfection	–	–	dramatically hindered	inhibited the growth rate	enhanced	39%	178+/−19	dramatically hindered	78%	inhibited	21 and 21 ± 3	18 and 18 ± 5	26 and 26 ± 7	remarkably reduced	inhibited the growth rate
